Laboratory results reported in ChEMBL document CHEMBL1148865, “A long-acting selective neuropeptide Y2 receptor PEGylated peptide agonist reduces food intake in mice” (Bioorg Med Chem Lett, 2007).

Tests used:
[1] = biological target: T1, Neuropeptide Y receptor type 5 (Homo sapiens, UniProt Q15761); experiment: Displacement of [125I]PYY from human NPY5 receptor in HEK293 cells; assay type: cell-based
T1 sequence (Q15761 whole entry): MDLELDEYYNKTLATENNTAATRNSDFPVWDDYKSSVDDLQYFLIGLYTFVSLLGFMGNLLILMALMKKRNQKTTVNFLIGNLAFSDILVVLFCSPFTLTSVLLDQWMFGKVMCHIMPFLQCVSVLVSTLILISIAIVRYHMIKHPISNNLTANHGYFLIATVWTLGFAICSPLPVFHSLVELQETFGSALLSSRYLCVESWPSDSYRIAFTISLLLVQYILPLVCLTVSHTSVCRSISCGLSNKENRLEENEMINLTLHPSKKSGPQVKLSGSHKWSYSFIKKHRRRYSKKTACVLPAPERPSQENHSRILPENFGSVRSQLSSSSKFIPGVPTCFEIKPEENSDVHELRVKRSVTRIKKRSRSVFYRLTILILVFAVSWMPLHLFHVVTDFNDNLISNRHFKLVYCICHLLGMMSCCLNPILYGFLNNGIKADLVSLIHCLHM

[2] = biological target: T2, Neuropeptide Y receptor type 2 (Homo sapiens, UniProt P49146); experiment: Agonist activity at human NPY2 receptor in KAN-TS cells by [35S]GTP-gamma-S binding assay; assay type: functional, cell-based
T2 sequence (P49146 whole entry): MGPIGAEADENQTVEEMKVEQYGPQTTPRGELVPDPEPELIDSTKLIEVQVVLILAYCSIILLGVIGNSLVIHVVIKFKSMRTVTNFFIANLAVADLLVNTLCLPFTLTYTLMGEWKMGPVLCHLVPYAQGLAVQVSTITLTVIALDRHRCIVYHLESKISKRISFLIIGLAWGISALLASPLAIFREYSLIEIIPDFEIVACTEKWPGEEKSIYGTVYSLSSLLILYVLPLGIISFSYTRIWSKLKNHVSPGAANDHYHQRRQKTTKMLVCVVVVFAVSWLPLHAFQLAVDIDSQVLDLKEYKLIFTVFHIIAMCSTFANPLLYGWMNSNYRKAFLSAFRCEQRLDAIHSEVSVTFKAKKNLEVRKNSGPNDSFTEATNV

[3] = biological target: T3, Neuropeptide Y receptor type 1 (Homo sapiens, UniProt P25929); experiment: Displacement of [125I]PYY from human NPY1 receptor in SK-N-MC cells; assay type: cell-based
T3 sequence (P25929 whole entry): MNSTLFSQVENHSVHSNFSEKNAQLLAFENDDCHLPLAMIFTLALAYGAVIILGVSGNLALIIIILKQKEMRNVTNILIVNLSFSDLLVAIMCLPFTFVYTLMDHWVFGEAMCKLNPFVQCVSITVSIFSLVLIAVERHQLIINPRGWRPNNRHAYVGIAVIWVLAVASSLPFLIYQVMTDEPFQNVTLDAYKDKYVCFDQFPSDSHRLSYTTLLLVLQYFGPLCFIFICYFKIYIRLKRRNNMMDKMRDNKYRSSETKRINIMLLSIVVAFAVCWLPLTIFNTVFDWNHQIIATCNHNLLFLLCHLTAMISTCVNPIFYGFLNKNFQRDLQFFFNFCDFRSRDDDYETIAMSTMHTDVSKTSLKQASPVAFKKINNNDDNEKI

[4] = biological target: T4, Neuropeptide Y receptor type 2 (Homo sapiens) (UniProt P49146); experiment: Agonist activity at human NPY2 receptor in KAN-TS cells at 1 uM by [35S]GTP-gamma-S binding assay; assay type: functional, cell-based
T4 sequence (whole entry): T2 sequence (P49146 whole entry)

[5] = biological target: T2, Neuropeptide Y receptor type 2; experiment: Displacement of [125I]PYY from human NPY2 receptor in KAN-TS cells by SPA assay; assay type: cell-based
Mus musculus = experiment: Reduction of food intake in C57BL/6 mouse at 10 mg/kg, sc after 1 to 24 hrs; assay type: functional; set-up: scale not given: the % may be the effect or the level left; conditions: route subcutaneous

Ki [1]	EC50 [2]	Ki [3]	E/Emax [4]	Ki [5]	Substance	Activity (Mus musculus)
> 1000 nM	33 nM	> 1000 nM	94%	8.2 nM	Ac-CLRHYLNLLTRQRY-NH2	
> 1000 nM	160 nM	> 1000 nM	81%	200 nM	Ac-LRHYLNLLTRQRYC-NH2	

Substance	Ki [1]	EC50 [2]	Ki [3]	E/Emax [4]	Ki [5]	Activity (Mus musculus)
Ac-LRHYLNLLTRQRY-NH2	> 1000 nM	6 nM	210 nM	100%	5 nM	6%
